Test results taken from US20230265098A1, “ALKYNE QUINAZOLINE DERIVATIVES AS INHIBITORS OF ERBB2” (EnLiven Therapeutics, Inc., priority 2020, published 2023).
Where a name gives a salt, the structure may show the parent alone.

Legend:
[1] = molecular target: T1, phosphorylated EGFR (pEGFR) (Homo sapiens, UniProt P00533); assay: Detection of phosphorylated EGFR (pEGFR) in EGF-stimulated A431 cells (AlphaLISA); assay type: cell-based; details: A431 cells (10% FBS), 4 hours with compound, then EGF 30 ng/mL for 10 minutes
T1 construct: endogenous in cells; host or cells: A431
Description: Enzyme-linked immunosorbent assays (ELISA) were performed to measure phosphorylated EGFR levels using A431 cells (10% FBS). A431 (1.0*10^4 cells/40 μl/well) cells were seeded in 384 well. Compounds were dissolved in DMSO, serially diluted in DMSO and then were added, mixed, and incubated for 4 hours at 37° C., 5% CO2. Following the 4-hours incubation, cells were stimulated for 10 minutes with EGF (Invitrogen, cat #PHG0311) at a final concentration of 30 ng/mL in the incubator. The media was aspirated and cells were lysed in 10 μL lysis buffer with protease and phosphatase inhibitors (PerkinElmer, cat #ALSU-PEGFR-A50K). The plates were placed on a shaker for 5 minutes and then incubated for 30 min at 4° C. for complete lysis. The lysate was transferred to an Optiplate (Perkin Elmer, cat #6007290).
Acceptor mix (PerkinElmer, cat #ALSU-PEGFR-A50K) was prepared just before use and 5 μL was dispensed to all the wells, followed by a 1.5-2 h incubation at room temperature in dark. The donor mix (PerkinElmer, cat #ALSU-PEGFR-A50K) was prepared under low light conditions prior to use and […] of donor mix was added to all the wells under subdued lighting or green filters. The plates were placed on a shaker for 5 min, sealed, and incubated overnight at room temperature in dark. Plates were read on the Envision (PerkinElmer) using standard AlphaLISA settings.
The percentage of inhibition on EGFR phosphorylation was calculated following equation: % Inhibition=100×(LumHC−LumSample)/(LumHC−LumLC). The low and high controls (LC/HC) are generated from lysate from wells with cells treated with DMSO or […] Staurosporine (BioAustralis, cat #BIA-S1086), […]. IC50 values were calculated by fitting the Curve using XLfit (v5.3.1.3), equation 201: Y=Bottom+(Top−Bottom)/(1+10^((LogIC50−X)*HillSlope)).

[2] = molecular target: T2, Ba/F3 ERBB2 A775_G776insYVMA (Homo sapiens, UniProt P04626, DUP772-775, cells depend on it); assay: Cell viability assay (CellTiter Glo); assay type: cell-based, mouse; details: 72 hours; 300 cells per well, 384-well plates (Table B5); read-out: Cell Line: Ba/F3 ERBB2 A775 G776ins YVMA IC50
T2 construct: Ba/F3 cell lines were engineered to express human ERBB2 or EGFR kinases, rendering the cells IL-3 independent
Description: Cells were treated with compounds, and cell viability was measured as a metric of kinase inhibition.
The Ba/F3 cell line is IL-3-dependent mouse cell line derived from the C3H mouse strain. Ba/F3 cell lines were engineered to express human ERBB2 or EGFR kinases, rendering the cells IL-3 independent. The lines were generated via retroviral transduction utilizing a Moloney murine leukemia virus (MMLV) promoter, and constructs are stably integrated into the cell genome.
Similarly, Ba/F3 cell lines engineered to express EGFR, ERBB2, or ERBB2 mutants were grown, harvested, counted and seeded at 3000 cells per well in 96-well plates for the data sets shown in Tables B3-B4, and seeded at 300 cells per well in 384-well plates for the data set shown in Table B5. A subset of wells contained media only (low control, “LC”).
Table B2 provides the growth media and number of cells seeded per well for the each cell line.
Compounds were dissolved in DMSO and serially diluted. Serially-diluted compound or a DMSO only control (high control, “HC”) was added to the plated cells in each well. […] The final proportion of DMSO never exceeded 0.1%.
Plates were placed in a 37° C., 5% CO2 incubator for 72 hours. Plates were then removed from the incubator and equilibrated for 15 minutes at room temperature. 40 IA of CellTiter Glo reagent (Promega) was added to measure the relative level of metabolically active cells by quantifying intracellular ATP concentrations. Plates were incubated for 30 minutes at room temperature, and luminescence was measured. Percent viability was normalized to a vehicle control only using the following formula: % viability=100×(LumSample−LumLC) (LumHC−LumLC). Graphical curves were fitted using a nonlinear regression model with a sigmoidal dose response.

[3] = molecular target: T3, phosphorylated ERBB2 (pERBB2) (Homo sapiens, UniProt P04626); assay: Detection of phosphorylated ERBB2 (pERBB2) by ELISA in BT-474 cells; assay type: cell-based; details: four hours incubation with compound, OD 450 nm
T3 construct: endogenous in cells; host or cells: BT-474
Description: BT-474 cells were seeded into a 96-well at 2.0*10^4 cells/100 μl/well.
Compounds were dissolved and serially diluted in DMSO. The compounds were then were added, mixed, and incubated for four hours at 37° C., 5% CO2. Compounds were added using four-fold dilutions at final concentrations ranging from 10 μM to 0.01 nM.
Following the four hour incubation with compounds, cell lysates were prepared. Plates were centrifuged for 5 min at 3000 RPM, and supernatant was removed from each well. Cells were washed 3 times by resuspension in 150 μl PBS, followed by centrifugation and removal of the supernatant, as above. […] Cells were incubated with lysis buffer for 1 hour at 4° C., and then stored at −80° C.
Enzyme-linked immunosorbent assays (ELISA) were performed to measure phosphorylated ERBB2 levels. […] The next day, plates were washed with PBS+0.05% Tween20 (PBST). 150 μl of 5% BSA blocking solution was added for 1 hour at room temperature, with shaking. Plates were washed with PBST. Cell lysates were thawed and 100 μl of lysate was added to the ELISA plate. The plates were incubated for 2 hours at room temperature, with shaking. […] Plates were incubated for 1 hour at room temperature, with shaking. Plates were then washed with PBST, and 100 μl TMB substrate solution (R&D Systems, cat #DY999) was added. Plate were incubated in the dark for 20 minutes at room temperature. 50 μl of Stop solution (R&D Systems, cat #DY994) (50 μl) was added to each well and mixed.
Optical density at 450 nm was read on an EnSpire plate reader (Perkin Elmer). The remaining kinase activity by calculated using the following formula: % Relative activity=100×(A450sample−A450LC)/(A450HC−A450LC). The low and high control values (“LC” and “HC”) were generated from lysate from wells without cells or with cells treated with 0.1% DMSO, respectively.

T3 sequence (P04626 23-1255): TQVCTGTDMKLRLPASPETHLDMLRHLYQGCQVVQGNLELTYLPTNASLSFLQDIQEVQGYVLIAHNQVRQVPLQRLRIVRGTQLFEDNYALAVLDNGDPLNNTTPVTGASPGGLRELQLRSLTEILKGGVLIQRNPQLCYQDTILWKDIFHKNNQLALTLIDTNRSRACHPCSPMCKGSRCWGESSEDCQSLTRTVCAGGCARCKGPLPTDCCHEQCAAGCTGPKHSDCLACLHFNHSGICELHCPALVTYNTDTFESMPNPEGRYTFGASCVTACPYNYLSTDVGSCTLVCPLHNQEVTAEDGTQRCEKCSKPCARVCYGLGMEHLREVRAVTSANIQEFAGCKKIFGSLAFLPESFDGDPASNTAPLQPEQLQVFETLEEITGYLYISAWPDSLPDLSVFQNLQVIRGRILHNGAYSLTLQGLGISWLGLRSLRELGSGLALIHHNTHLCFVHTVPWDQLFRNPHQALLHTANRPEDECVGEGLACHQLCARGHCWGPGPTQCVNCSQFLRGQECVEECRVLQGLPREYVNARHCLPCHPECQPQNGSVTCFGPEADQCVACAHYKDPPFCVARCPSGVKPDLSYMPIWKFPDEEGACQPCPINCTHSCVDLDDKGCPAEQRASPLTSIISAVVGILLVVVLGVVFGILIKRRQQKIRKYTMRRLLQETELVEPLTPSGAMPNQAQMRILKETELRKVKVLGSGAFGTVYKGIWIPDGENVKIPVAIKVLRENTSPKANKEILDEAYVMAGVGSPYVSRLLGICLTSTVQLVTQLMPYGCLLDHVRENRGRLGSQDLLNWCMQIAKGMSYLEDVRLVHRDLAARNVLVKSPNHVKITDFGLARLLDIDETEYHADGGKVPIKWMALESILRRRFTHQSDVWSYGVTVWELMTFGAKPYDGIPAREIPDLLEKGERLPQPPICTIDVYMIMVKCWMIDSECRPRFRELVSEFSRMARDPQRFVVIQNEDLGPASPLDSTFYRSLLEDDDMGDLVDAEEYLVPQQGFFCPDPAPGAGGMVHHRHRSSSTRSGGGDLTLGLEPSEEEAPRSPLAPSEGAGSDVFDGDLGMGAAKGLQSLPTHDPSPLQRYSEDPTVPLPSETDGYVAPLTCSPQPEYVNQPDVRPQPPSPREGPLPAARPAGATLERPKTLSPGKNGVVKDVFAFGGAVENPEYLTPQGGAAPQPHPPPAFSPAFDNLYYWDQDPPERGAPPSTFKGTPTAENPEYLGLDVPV
T1 sequence (P00533 25-1210): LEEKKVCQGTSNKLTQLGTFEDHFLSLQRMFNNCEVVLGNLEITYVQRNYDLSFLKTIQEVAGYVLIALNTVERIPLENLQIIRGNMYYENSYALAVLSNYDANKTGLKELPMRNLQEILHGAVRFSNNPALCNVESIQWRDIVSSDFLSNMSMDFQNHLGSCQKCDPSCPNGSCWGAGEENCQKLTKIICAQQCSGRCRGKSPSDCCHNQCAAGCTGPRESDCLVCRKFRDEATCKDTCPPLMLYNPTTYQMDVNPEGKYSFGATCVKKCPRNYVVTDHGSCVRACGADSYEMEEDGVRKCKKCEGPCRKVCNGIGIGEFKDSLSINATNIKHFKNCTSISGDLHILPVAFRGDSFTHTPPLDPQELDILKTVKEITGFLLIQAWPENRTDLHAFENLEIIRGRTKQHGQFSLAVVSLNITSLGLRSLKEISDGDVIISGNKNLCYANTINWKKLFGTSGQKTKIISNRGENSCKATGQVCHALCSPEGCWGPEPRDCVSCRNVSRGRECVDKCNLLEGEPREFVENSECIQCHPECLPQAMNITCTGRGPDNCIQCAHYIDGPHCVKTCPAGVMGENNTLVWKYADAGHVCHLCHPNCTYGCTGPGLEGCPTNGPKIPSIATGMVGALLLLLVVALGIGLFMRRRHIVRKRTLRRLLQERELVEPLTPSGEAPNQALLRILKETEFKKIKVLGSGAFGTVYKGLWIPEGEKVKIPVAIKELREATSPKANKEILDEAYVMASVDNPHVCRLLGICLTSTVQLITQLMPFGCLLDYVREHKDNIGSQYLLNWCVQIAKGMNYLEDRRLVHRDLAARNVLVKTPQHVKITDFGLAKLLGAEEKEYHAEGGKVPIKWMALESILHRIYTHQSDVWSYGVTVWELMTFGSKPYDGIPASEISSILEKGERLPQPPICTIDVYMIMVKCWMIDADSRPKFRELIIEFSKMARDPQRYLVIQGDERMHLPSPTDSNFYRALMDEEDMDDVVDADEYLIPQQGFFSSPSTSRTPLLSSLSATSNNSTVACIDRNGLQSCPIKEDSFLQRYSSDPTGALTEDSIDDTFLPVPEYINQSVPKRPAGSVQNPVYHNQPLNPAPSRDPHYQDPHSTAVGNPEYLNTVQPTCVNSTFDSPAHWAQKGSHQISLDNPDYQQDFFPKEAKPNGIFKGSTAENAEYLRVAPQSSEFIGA
T2 sequence (P04626 with tags, fused parts or gaps DUP772-775): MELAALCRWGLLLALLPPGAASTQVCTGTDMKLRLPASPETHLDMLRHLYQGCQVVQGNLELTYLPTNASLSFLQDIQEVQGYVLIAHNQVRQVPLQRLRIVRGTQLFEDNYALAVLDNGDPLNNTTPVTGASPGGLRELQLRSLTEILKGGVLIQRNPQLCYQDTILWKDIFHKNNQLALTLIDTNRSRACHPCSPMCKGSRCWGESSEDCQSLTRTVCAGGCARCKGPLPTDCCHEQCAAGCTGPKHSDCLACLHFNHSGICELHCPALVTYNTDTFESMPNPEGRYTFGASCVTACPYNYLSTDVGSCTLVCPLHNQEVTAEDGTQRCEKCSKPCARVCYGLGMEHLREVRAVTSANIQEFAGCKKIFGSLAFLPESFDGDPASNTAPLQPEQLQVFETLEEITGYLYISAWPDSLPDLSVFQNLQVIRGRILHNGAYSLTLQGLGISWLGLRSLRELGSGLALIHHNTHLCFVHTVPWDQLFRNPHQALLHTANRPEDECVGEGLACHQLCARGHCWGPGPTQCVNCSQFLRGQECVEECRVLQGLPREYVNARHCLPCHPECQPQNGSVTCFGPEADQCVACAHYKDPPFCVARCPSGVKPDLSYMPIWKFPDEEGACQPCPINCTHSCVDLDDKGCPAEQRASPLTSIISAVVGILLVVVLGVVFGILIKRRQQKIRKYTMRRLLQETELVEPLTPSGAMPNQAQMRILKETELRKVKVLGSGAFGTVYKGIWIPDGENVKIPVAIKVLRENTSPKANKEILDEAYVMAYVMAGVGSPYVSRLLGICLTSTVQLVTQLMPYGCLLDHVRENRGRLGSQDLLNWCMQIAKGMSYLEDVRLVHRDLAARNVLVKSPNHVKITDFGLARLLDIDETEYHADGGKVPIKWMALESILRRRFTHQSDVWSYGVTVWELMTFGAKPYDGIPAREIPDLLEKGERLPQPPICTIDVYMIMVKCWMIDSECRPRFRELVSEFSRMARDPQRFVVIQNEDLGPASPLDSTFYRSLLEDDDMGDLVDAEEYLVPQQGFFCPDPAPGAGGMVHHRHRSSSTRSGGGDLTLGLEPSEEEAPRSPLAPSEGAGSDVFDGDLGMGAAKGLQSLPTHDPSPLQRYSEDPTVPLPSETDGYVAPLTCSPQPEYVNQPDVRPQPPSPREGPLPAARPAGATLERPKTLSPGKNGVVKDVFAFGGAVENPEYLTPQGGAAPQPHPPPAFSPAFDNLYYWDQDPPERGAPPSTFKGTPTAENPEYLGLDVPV

IC50 [1] [nM] | IC50 [3] [nM] | Compound | GI50 [2] [nM]
377 | 52.3 | CC#CC(=O)Nc1ccc2ncnc(Nc3ccc(Oc4ccc5c(c4)ncn5C)c(C)c3)c2c1 [Compound 212, N-[4-({3-methyl-4-[(1-methyl-1,3-benzodiazol-5-yl)oxy]phenyl}amino)quinazolin-6-yl]but-2-ynamide] | 9.41
74.5 | 16.1 | CC#CC(=O)Nc1cc2c(Nc3ccc(Oc4ccc(C)nc4)c(C)c3)ncnc2cc1OCCN(C)C [Compound 186, N-{7-[2-(dimethylamino)ethoxy]-4-({3-methyl-4-[(6-methylpyridin-3-yl)oxy]phenyl}amino)quinazolin-6-yl}but-2-ynamide] | 
680 | 17.3 | Cc1cc(Nc2ncnc3ccc(NC(=O)C#CC4(C)CC4)cc23)ccc1Oc1ccn2ncnc2c1 [Compound 185, N-{4-[(3-methyl-4-{[1,2,4]triazolo[1,5-a]pyridin-7-yloxy}phenyl)amino]quinazolin-6-yl}-3-(1-methylcyclopropyl)prop-2-ynamide] | 5.11
418 | 14 | Cc1cc(Nc2ncnc3cc(OCCN(C)C)c(NC(=O)C#CC4CC4)cc23)ccc1Oc1ccn2ncnc2c1 [Compound 170, 3-cyclopropyl-N-{7-[2-(dimethylamino)ethoxy]-4-[(3-methyl-4-{[1,2,4]triazolo[1,5-a]pyridin-7-yloxy}phenyl)amino]quinazolin-6-yl}prop-2-ynamide hydrochloride] | 
297 | 78 | Cc1cc(Nc2ncnc3ccc(NC(=O)C#CC4CC4)cc23)ccc1Oc1ccc([C@@H](F)CF)nc1 [Compound 188, (R)-3-cyclopropyl-N-(4-((4-((6-(1,2-difluoroethyl)pyridin-3-yl)oxy)-3-methylphenyl)amino)quinazolin-6-yl)propiolamide] | 

Second part, the molecule before the results:

Compound | IC50 [1] [nM] | IC50 [3] [nM] | GI50 [2] [nM]
Cc1cc(Nc2ncnc3cc(OCCN(C)C)c(NC(=O)C#CC4(C)CC4)cc23)ccc1Oc1ccn2ncnc2c1 [Compound 190, N-{7-[2-(dimethylamino)ethoxy]-4-[(3-methyl-4-{[1,2,4]triazolo[1,5-a]pyridin-7-yloxy}phenyl)amino]quinazolin-6-yl}-3-(1-methylcyclopropyl)prop-2-ynamide] | 1220 | 24.9 | 34.5
CC#CC(=O)Nc1cc2c(Nc3ccc(Cc4ccn5ncnc5c4)c(C)c3)ncnc2cc1OCCCN(C)C [Compound 189, N-{7-[3-(dimethylamino)propoxy]-4-[(3-methyl-4-{[1,2,4]triazolo[1,5-a]pyridin-7-ylmethyl}phenyl)amino]quinazolin-6-yl}but-2-ynamide] | 106 | 1.87 | 2.47
CC#CC(=O)Nc1cc2c(Nc3ccc(Oc4ccn5ncnc5c4)c(C)c3)ncnc2cc1OCCN1CCCC1 [Compound 192, N-{4-[(3-methyl-4-{[1,2,4]triazolo[1,5-a]pyridin-7-yloxy}phenyl)amino]-7-[2-(pyrrolidin-1-yl)ethoxy]quinazolin-6-yl}but-2-ynamide] | 1350 | 9.51 | 11
CC#CC(=O)Nc1ccc2ncnc(Nc3ccc(Oc4ccc5c(c4)ncn5C)c(C)c3)c2c1F [Compound 213, N-[5-fluoro-4-({3-methyl-4-[(1-methyl-1,3-benzodiazol-5-yl)oxy]phenyl}amino)quinazolin-6-yl]but-2-ynamide] | 579 | 32.4 | 9.65
CC#CC(=O)Nc1cc2c(Nc3ccc(Oc4ccn5ncnc5c4)c(Cl)c3F)ncnc2cc1OCCN(C)C [Compound 193, N-(4-((4-([1,2,4]triazolo[1,5-a]pyridin-7-yloxy)-3-chloro-2-fluorophenyl)amino)-7-(2-(dimethylamino)ethoxy)quinazolin-6-yl)but-2-ynamide] | 658 | 13.8 | 9.32
CC#CC(=O)Nc1cc2c(Nc3ccc(Oc4ccn5ncnc5c4)c(C)c3F)ncnc2cc1OCCN(C)C [Compound 180, N-(4-((4-([1,2,4]triazolo[1,5-a]pyridin-7-yloxy)-2-fluoro-3-methylphenyl)amino)-7-(2-(dimethylamino)ethoxy)quinazolin-6-yl)but-2-ynamide] | 1590 | 23.4 | 
CC#CC(=O)Nc1cc2c(Nc3cc(Cl)c(Oc4ccn5ncnc5c4)cc3F)ncnc2cc1OCCN(C)C [Compound 197, N-(4-((4-([1,2,4]triazolo[1,5-a]pyridin-7-yloxy)-5-chloro-2-fluorophenyl)amino)-7-(2-(dimethylamino)ethoxy)quinazolin-6-yl)but-2-ynamide] | 555 | 11.4 | 
CC#CC(=O)Nc1cc2c(Nc3cc(C)c(Oc4ccn5ncnc5c4)cc3F)ncnc2cc1OCCN(C)C [Compound 182, N-{7-[2-(dimethylamino)ethoxy]-4-[(2-fluoro-5-methyl-4-{[1,2,4]triazolo[1,5-a]pyridin-7-yloxy}phenyl)amino]quinazolin-6-yl}but-2-ynamide] | 1490 | 13.2 | 
Cc1c(Oc2ccn3ncnc3c2)ccc(Nc2ncnc3cc(OCCN(C)C)c(NC(=O)C#CC4CC4)cc23)c1F [Compound 179, N-(4-((4-([1,2,4]triazolo[1,5-a]pyridin-7-yloxy)-2-fluoro-3-methylphenyl)amino)-7-(2-(dimethylamino)ethoxy)quinazolin-6-yl)-3-cyclopropylpropiolamide] | 2550 | 121 | 
Cc1cc(Nc2ncnc3cc(OCCN(C)C)c(NC(=O)C#CC4CC4)cc23)c(F)cc1Oc1ccn2ncnc2c1 [Compound 181, N-(4-(4-([1,2,4]triazolo[1,5-a]pyridin-7-yloxy)-2-fluoro-5-methylphenylamino)-7-(2-(dimethylamino)ethoxy)quinazolin-6-yl)-3-cyclopropylpropiolamide formate] | 971 | 22.8 | 
